{"source": "patent US5776957A", "about": "“Nornicotine enantiomers for use as a treatment for dopamine related conditions and disease states” (The University of Kentucky Research Foundation, priority 1996, dated 1998)", "key": {"[1]": {"test_system": "[3H]DA-preloaded rat striatal slices (nicotinic receptors)", "test": "[3H]overflow (DA release) from [3H]DA-preloaded rat striatal slices", "assay_type": "cell-based", "procedure": "In vitro pharmacological effects of NIC are generally investigated using either striatal slices or synaptosome preparations preloaded with [^3 H] DA. NIC-evoked [^3 H]overflow is obtained routinely in the presence of nomifensine (10 μM; a DA uptake inhibitor) and for pargyline (10 μM, a monoamine oxidase inhibitor) in the superfusion buffer, such that [^3 H]overflow represents primarily [^3 H]DA rather than [H]DA-metabolites (Zumstein et al., 1981, Hoffmann and Cubeddu, 1982, Dwoskin and Zahniser, 1986, Rapier et al., 1988), and for this reason, [^3 H]overflow also will be referred to as [^3 H] DA release in the proposal.\nThe present studies use striatal slices superfused with various concentrations of NIC or norNIC for prolonged periods.\nFIG. 4. […] Insets illustrate the response to the low concentration range. […] NIC exposure indicated by the bar under time course. Note: 1-min sample collection period. […] N=4 rats.\nRat striatal slices were depolarized with 10 μM NIC, 20 mM K+or 1 Hz, 60 pulses or 3 Hz, 180 pulses electrical field stimulation. […] N=4.\nMEC or DHβE was included in the superfusion buffer for 60 min prior to the addition of NIC, and superfusion continued for 60 min in the presence of NIC+antagonist."}, "[2]": {"test": "Locomotor activity assay, acute and repeated treatment, S(-) nicotine challenge, saline challenge", "assay_type": "in vivo, rat", "settings": "for behavioral sensitization after repeated administration: 8 injections once every 48 hrs, nicotine 1 mg/kg, R(+) 0.3-10 mg/kg; for cumulated locomotor activity after saline challenge: S(-) experiment; for cross-sensitization to S(-) nicotine: repeated S(-) nornicotine", "procedure": "(I mg/kg), norNIC (0.3-10 mg/kg) or R(+) norNIC (0.3-10 mg/kg) was administered peripherally (s.c., 8 injections once every 48 hrs) to groups of rats and locomotor activity was assessed for 50 min immediately after each injection.\nIn the present study, S(-) nicotine (1 mg/kg), R(+) nornicotine (1-10 mg/kg), S(-) nornicotine (1-10 mg/kg), or vehicle (saline) were administered s.c. to groups of rats (n=6) acutely or repeatedly (8 injections once every 48 hrs). Locomotor activity was measured during 50 min sessions immediately following drug or vehicle administration.\nMale Sprague-Hawley rats (225-250 g) from Harlan Laboratories were housed two per cage with free access to food and water.\nActivity was recorded automatically in a wooden test-chamber measuring 30×28×43 cm high. The chamber had white walls and a wire mesh floor over pine chip bedding. Two photobeams located 4.5 cm above the floor divided the chamber into four equal quadrants. Electromechanical equipment located in an adjacent room recorded photobeam interruptions automatically. A white noise generator provided an ambient 70 dB background noise in the test room in order to minimize extraneous sounds that might influence the animal's behavior in the test chamber. Rats were habituated to the chamber for 50 min on each of three consecutive days.\nOn the day immediately after the third habituation session, rats were randomly divided into groups (n=6/group) and were administered s.c. either S(-) nicotine (1 mg/kg), R(+) nornicotine (0.3, 1, 3 and 10 mg/kg), or vehicle (saline) to determine acute drug effects on locomotor activity. In a separate experiment, rats (n=6/group) were administered s.c. either S(-) nicotine (1 mg/kg), S(-) nornicotine (0.3, 1, 3 and 10 mg/kg), or vehicle (saline). To determine the effect of repeated drug administration on locomotor activity, drug or vehicle was administered respectively in the test-room once every 48 hrs for a total of 8 injections. After each injection, locomotor activity was recorded during a 50 min session (five 10-min blocks). On the ninth injection day (48 hrs following injection 8), each group of rats was administered a challenge dose (1 mg/kg) of S(-) nicotine in the test-room, and locomotor activity was determined immediately thereafter. On the tenth injection day, each group of rats was administered saline and locomotor activity recorded to determine potential conditioning effects of the repeated drug administration.\nPost hoc analysis of pairwise comparisons was performed with Duncan's New Multiple Range test."}, "[3]": {"test_system": "[3H]DA-preloaded rat striatal slices (nicotinic receptors)", "settings": "Teng et al., 1996; cited from earlier work"}, "[4]": {"test": "NIC and metabolites in rat brain after s.c. injection of radiolabelled NIC", "assay_type": "in vivo", "settings": "rat brain, after s.c. radiolabelled NIC", "excerpt": "NIC metabolism studies involving HPLRC analysis invariably utilize NIC with a radiolabel (i.e., [^3 H], [^14 C] or [^11 C]) incorporated in the methyl group. However N-demethylated NIC metabolites (norNIC and norCOT) cannot be detected after injection of such radionuclides, since the label is lost in the formation of these metabolites. NIC and four NIC metabolites have recently been detected in rat brain 4 hr after s.c. injection of [2'-^14 C]NIC (FIG. 3, Table I). Three of these metabolites have been identified as COT, norNIC and norCOT. A fourth minor metabolite (Peak B) has not been completely identified but appears to be an N-demethylated metabolite, since it is not detected in the [^3 H-N-methyl]NIC studies.\nCOT, and therefore, is unlikely to originate from COT N-demethylation. 3-HydroxyCOT and its glucuronide conjugate were not detected as metabolites of either NIC or COT in brain, even though these are major biotransformation products in the periphery (Crooks, 1993).\nIt appears that NIC metabolites which accumulate with a time course that correlates with the development of behavioral sensitization to NIC have a role in eliciting sensitization to NIC. The inventors have detected NIC, COT, norNIC and norCOT in brain 4 hr following acute s.c. injection of (±)[2'-^14 C]NIC. S(-) [^3 H] -N-methyl]NIC is unsuitable for studying brain metabolism of NIC, since nor-metabolites (i.e., demethylated metabolites) cannot be detected due to [^3 H]-loss during metabolism (Crooks et al., 1995b, AP 7). Thus, commercially available (±)[2'-^14 C]NIC was used to determine NIC metabolites present in brain. This form of radiolabelled NIC provides a metabolically stable [^14 C]-label which allows measurement of all potential NIC metabolites.\nA second \"metabolite\" (Peak A, FIG. 2) was also detected at each time point and most likely results from a combination of metabolic cleavage of the N-methyl group and dissociated-[^3 H], i e, Peak A represents an oxidized 1-carbon unit and indicates the extent of NIC N-demethylation. Note, in our subsequent studies with [2'-^14 C]NIC, Peak A was not observed, which is consistent with our interpretation of the results (Table 1)."}, "[5]": {"settings": "acute S(-) nornicotine 1 and 3 mg/kg"}, "[6]": {"settings": "repeated S(-) nornicotine 3 mg/kg"}}, "note": "Entries after “also recorded” stand apart in the source; their conditions may differ."}
{"compound": "c1cncc([C@@H]2CCCN2)c1", "note": "[S(-) nornicotine, S-(-) nornicotine]", "values": [{"measurement": "EC50", "setting": "[1]; Rattus norvegicus, read-out: EC50 for norNIC stimulated, DHβE-sensitive [3H]overflow", "value": "880 ± 310", "unit": "nM"}, {"measurement": "evoked [3H]overflow", "setting": "[1]; concentration-dependent", "value": "increase in [^3 H]overflow; also recorded: stereoselective and concentration dependent increase"}, {"measurement": "plateau in response", "setting": "[1]; concentration-response curve, 60-min exposure", "value": "not observed at concentrations up to 3 mM; also recorded: fail to produce a plateau in response"}, {"measurement": "release of dopamine from presynaptic terminals", "setting": "[1]; neuronal tissue", "value": "stereoselective and receptor-mediated"}, {"measurement": "behavioral sensitization after repeated administration", "setting": "[2]; S(-) nornicotine 10 mg/kg", "value": "produces behavioral sensitization; also recorded: behavioral sensitization following repeated administration of the high dose of S(-) nornicotine was observed"}, {"measurement": "behavioral sensitization after repeated administration", "setting": "[2]; S(-) nornicotine 10 mg/kg, listed as S-(-)- norNIC", "value": "produces behavioral sensitization"}, {"measurement": "conditioned response to repeated administration (saline challenge)", "setting": "[2]; 48 hrs after S(-) nicotine challenge", "value": "did not contribute to the observed behavioral sensitization"}, {"measurement": "cumulated locomotor activity after saline challenge", "setting": "[2]; 0.3 mg/kg", "value": "352 ± 17 number of photobeam interruptions/50 min session"}, {"measurement": "cumulated locomotor activity after saline challenge", "setting": "[2]; 1.0 mg/kg", "value": "333 ± 38 number of photobeam interruptions/50 min session"}, {"measurement": "cumulated locomotor activity after saline challenge", "setting": "[2]; 3.0 mg/kg", "value": "394 ± 50 number of photobeam interruptions/50 min session"}, {"measurement": "cumulated locomotor activity after saline challenge", "setting": "[2]; 10 mg/kg", "value": "459 ± 26 number of photobeam interruptions/50 min session"}, {"measurement": "locomotor activity after the seventh injection", "setting": "[2]; S(-) nornicotine 10 mg/kg, repeated", "value": "364±32", "unit": "photobeam interruptions"}, {"measurement": "cumulated locomotor activity vs saline-control", "setting": "[2]; acute S(-) nornicotine 0.3 mg/kg", "value": "significantly increased"}, {"measurement": "locomotor activity time course", "setting": "[2]; acute S(-) nornicotine 0.3 mg/kg, first 20 min", "value": "significant increase in activity"}, {"measurement": "cumulated locomotor activity vs saline-control", "setting": "[2]; acute S(-) nornicotine 10 mg/kg", "value": "significant decrease in activity"}, {"measurement": "locomotor activity time course", "setting": "[2]; acute S(-) nornicotine 10 mg/kg, first 10 min", "value": "decreased during the first 10 min of the session"}, {"measurement": "cumulated locomotor activity vs saline-control", "setting": "[2]; [5]", "value": "not different from the saline-control group"}, {"measurement": "locomotor activity time course", "setting": "[2]; [5]", "value": "not different from the saline-control group"}, {"measurement": "cumulated locomotor activity vs saline-control", "setting": "[2]; acute, 0.3 and 10 mg/kg, R(+) experiment", "value": "significant decrease in locomotor activity"}, {"measurement": "cumulated locomotor activity vs saline-control", "setting": "[2]; acute, 1 and 3 mg/kg, R(+) experiment", "value": "not different from control"}, {"measurement": "locomotor activity, first 10 min", "setting": "[2]; acute, S(-) nornicotine 3 mg/kg", "value": "121±14", "unit": "photobeam interruptions"}, {"measurement": "cross-sensitization to S(-) nicotine", "setting": "[2]", "value": "cross-sensitization to S(-) nicotine was observed"}, {"measurement": "tolerance to acute stimulatory effect", "setting": "[2]; repeated S(-) nornicotine 0.3 mg/kg", "value": "tolerance to the acute stimulatory effect"}, {"measurement": "locomotor activity, first 10 min", "setting": "[2]; [6]", "value": "101±12", "unit": "photobeam interruptions"}, {"measurement": "locomotor activity, first 10 min after S(-) nicotine challenge", "setting": "[2]; [6]", "value": "134±21", "unit": "photobeam interruptions"}, {"measurement": "tolerance to depressant effect", "setting": "[2]; [6]", "value": "tolerance did not develop"}, {"measurement": "tolerance to depressant effect", "setting": "[2]; repeated S(-) nornicotine 10 mg/kg", "value": "also observed; also recorded: tolerance developed"}, {"measurement": "time course after S(-) nicotine challenge", "setting": "[2]; repeated S(-) nornicotine 10 mg/kg, 10-min and 30-min time points", "value": "stimulated significantly"}, {"measurement": "locomotor activity time course", "setting": "[2]; repeated S(-) nornicotine 10 mg/kg, 20-40 min", "value": "significantly greater than that of the saline-control group"}, {"measurement": "locomotor activity vs saline-control", "setting": "[2]; repeated S(-) nornicotine 10 mg/kg, last administration", "value": "stimulated significantly above that of the saline-control group"}, {"measurement": "locomotor activity time course", "setting": "[2]; repeated S(-) nornicotine 0.3-3 mg/kg", "value": "not different from the saline-control group"}, {"measurement": "time course after S(-) nicotine challenge", "setting": "[2]; repeated S(-) nornicotine 0.3 and 1 mg/kg", "value": "not different from that of the saline-control group"}, {"measurement": "cumulated locomotor activity after S(-) nicotine challenge", "setting": "[2]; repeated S(-) nornicotine 0.3 and 1.0 mg/kg", "value": "no effect"}, {"measurement": "locomotor activity vs saline-control", "setting": "[2]; repeated S(-) nornicotine 1 and 3 mg/kg", "value": "not different from that of the saline-control group"}, {"measurement": "cumulated locomotor activity after S(-) nicotine challenge", "setting": "[2]; repeated S(-) nornicotine 3 and 10 mg/kg", "value": "significantly stimulated locomotor activity"}, {"measurement": "cross-sensitization to S(-) nicotine", "setting": "[2]; listed as norNIC", "value": "cross-sensitization was observed"}, {"measurement": "antagonist sensitivity of effects", "setting": "[3]", "value": "inhibited by mecamylamine and DHβE"}, {"measurement": "presence as metabolite in brain", "setting": "[4]", "value": "present in significant amounts in brain"}]}
